Test results as given in patent US10278909B2, “Composition suitable to preserve the physiological condition of skin and hair and reestablish their regenerative functions” (GIULIANI S.P.A., priority 2014, dated 2019).

System: Human Hair Follicle Outer Root Sheath Cells (HHFORSC)
Assay: ATP assay in Human Hair Follicle Outer Root Sheath Cells (Abcam ATP-assay kit, absorbance 570 nm)
Format: cell-based
Details: 24 h treatment, carnitine 10 mg/ml, caffeine 10 mg/ml, arginine 30 mg/ml (alone or combined); for ATP % vs control: control = culture medium only = 100
Experimental: Human Hair Follicle Outer Root Sheath Cells (HHFORSC), supplied by Innoprot, are isolated by ScienCell Research Labs from the outer sheath of the root of human hair. The cell line was grown in culture medium for mesenchymal stem cells (MSCM): 500 mL basal medium, 20% fetal bovine serum (FBS), 1% growth supplement for mesenchymal stem cells (MSCGS), 1% penicillin/streptomycin (P/S solution) and maintained in 25 cm^2 culture flasks at 37° C. and 5% CO2. Before proceeding with plating the cells, the flask cells is coated with poly-L-lysine (2 μg/cm^2). Every two days, the confluent cultures are divided 1:3-1:6, after washing with DPBS (Dulbecco's Phosphate-Buffered Saline), using a solution of T/E (trypsin/EDTA solution) and TNS (Trypsin Neutralization Solution) and seeded at 2-5×^4 cell/cm^2, 37° C., 5% CO2. When the cells (HHFORSC) reach about 80% confluence, they are detached with trypsin/EDTA and seeded at a density of 1×10^6 cells/ml in 12-well plates and then incubated at 37° C., 5% CO2 (24 h). When the cells reach about 80% confluence, they are treated with samples of the following compounds or mixtures of compounds, tested at the concentrations described hereafter: • Carnitine 10 mg/ml • Caffeine 10 mg/ml • Arginine 30 mg/ml • Carnitine 10 mg/ml+Caffeine 10 mg/ml • Carnitine 10 mg/ml+Arginine 30 mg/ml • Caffeine 10 mg/ml+Arginine 30 mg/ml • Carnitine 10 mg/ml+Caffeine 10 mg/ml+Arginine 30 mg/ml The cells treated with culture medium only were used as control. All the cells were incubated at 37° C., 5% CO2 for 24 h. […] The samples were then lysed by pipetting repeatedly and centrifuged to remove insoluble materials, and finally stored on ice until use. […] The samples were incubated at room temperature for 30 minutes, in the dark. The absorbance was read at a wavelength of 570 nm with a reference filter of 630 nm in a microplate reader Biotek ELX808 using a predetermined protocol and after having correctly defined a layout of the plate. The ATP concentration was calculated by interpolating the data of the standard curve after subtraction of the blank: [ATP] (nmol/μl)=Ts/Sv where Ts is the amount of ATP from the standard curve (nmol); SV is the volume of the sample (before dilution) added to the sample wells (μl).

N=C(N)NCCC[C@H](N)C(=O)O [Arginine]
Δ % (increase in the production of cellular ATP vs untreated control): 32.944% | ATP % vs control: 132.94%

Cn1c(=O)c2c(ncn2C)n(C)c1=O [Caffeine]
Δ % (increase in the production of cellular ATP vs untreated control): 26.843% | ATP % vs control: 126.84%

C[N+](C)(C)CC(O)CC(=O)[O-] (stereo not drawn) [Carnitine]
Δ % (increase in the production of cellular ATP vs untreated control): 34.164% | ATP % vs control: 134.16%
